The source of these data is patent EP4650351A1, “INHIBITOR OF COMPLEMENT FACTOR B” (Nanjing Chia Tai Tianqing Pharmaceutical Co., Ltd., priority 2023, dated 2024).

Data set [1] concerns collagen antibody and lipopolysaccharide-induced arthritis (CAIA). The data set can be described thus: Pharmacodynamic study in the mouse CAIA model (Experimental Example 5). It counts as in vivo, BALB/c mice. The conditions noted are these: Mean; 20mg/kg bid oral, Day0-Day14; larger AUC = greater severity. As for the experimental part: Experimental Animals: BALB/c mice, male, 6-8 weeks, 18-20 g; Supplier: Shanghai Jihui Laboratory Animal Care Co., Ltd 1. Induction of the mouse CAIA model: On Day 0, all mice were intravenously injected via the tail vein with 0.15 mL of Arthrogen-CIA 5-clone mixed type II collagen antibody (10 mg/mL, Chondrex). […] 2. Administration: Table 7. Administration groups and administration schemes [table] The experimental data are expressed as mean±standard error (mean ± S.E.M.). The data were analyzed by One-way ANOVA/Dunnett's using Graphpad Prism and by Repeat Measurement ANOVA/Bonferroni using SPSS. P< 0.05 was considered to indicate a significant difference. Arthritis scoring: Starting from the day of modeling, the incidence of arthritis in the limbs of the animals in each group was observed three times a week until the end of the experiment. According to the different degrees of lesions (erythema and swelling), the scoring was carried out according to the standard of 0-4 points. […] The larger the AUC, the greater the severity of arthritis was. […] Arthritis score AUC

Data set [2] has as its system alternative complement pathway in human serum. Briefly: Complement deposition assay of serum alternative pathway (Wieslab Complement system Alternative pathway kit). The class given is biochemical. As to conditions: human serum diluted 18-fold, 37 °C 60 minutes, absorbance 405 nm. As for the experimental part:
The Wieslab® Complement system Alternative pathway kit (WIESLAB® Complement system Alternative pathway AP330 RUO) was used to detect the inhibitory activity of the compounds on the alternative complement pathway in human serum. Human serum was diluted 18-fold with the kit diluent. The diluted serum was added to a 96-well plate at 130 µL/well. Using a compound titrator (Tecan, D300e), test compounds at corresponding concentrations were added. The test concentration of the compounds started at 10 µM, with 3-fold serial dilution for 6 concentration points, detected in single wells. The DMSO ratio was uniformly adjusted to 0.1% using DMSO in all drug-treated wells. In the positive control wells, 0.1% DMSO and 130 µL of diluted serum were added; in the negative control wells, 0.1% DMSO and 130 µL of the kit diluent were added. The mixtures were pre-incubated at room temperature for 15 min. The incubated mixtures were transferred to the 96-well plate provided by the kit at 100 µL per well, incubated at 37 °C for 60 minutes, and the liquid in the wells was discarded. 300 µL of the washing solution in the kit was added to each well. The wells were washed three times. 100 µL of the conjugated antibody Conjugate in the kit was added to each well, and it was incubated at room temperature for 30 minutes. The liquid in the wells was removed. 300 µL of the washing solution in the kit was added to each well and the wells were washed three times. 100 µL of the substrate solution was added to each well and incubated at room temperature for 30 minutes. […] Table 2. Results of complement deposition in serum alternative pathway

The nature of data set [3]: Pharmacokinetic study in mice. The class given is in vivo. The conditions noted are these: mouse, 10 mg/kg, PO (10 mpk), male ICR (CD-1) mice, plasma. As for the experimental part: Experimental Example 3: Pharmacokinetic study in mice
Purpose of the experiment: To investigate the plasma pharmacokinetics in male ICR (CD-1) mice after single intravenous administration and gavage administration of the compounds of the present disclosure.
Experimental animals: Male ICR (CD-1) mice, body weight 32-35 g; supplier: Vital River Laboratory Animal Technology Co., Ltd.
Experimental procedures: Intravenous Administration (IV); Oral Gavage (PO); the dose was 10 mg/kg (vehicle: water (containing 0.5% methylcellulose (w/v) and 0.5% Tween 80 (v/v)).
Sample collection: At each set time point, 40 µL of blood was collected from the orbital sinus of the experimental animals. Whole blood samples were placed in anticoagulant tubes containing EDTA-K2. The whole blood samples were centrifuged at 1500 g for 10 min to separate plasma. The upper-layer plasma samples were collected into sample tubes for LC-MS/MS analysis.
Data analysis: Plasma concentrations were processed using the non-compartmental model in WinNonlin™Version6.3 (Pharsight, Mountain View, CA) pharmacokinetic software. Pharmacokinetic parameters Cl, T1/2, Cmax, and AUC0-24 were calculated using the linear-log trapezoidal method, and the results were shown in the table below. Table 3. Results of the pharmacokinetic study

The target of data set [4] is T1, human complement factor B (Homo sapiens, UniProt P00751).
T1 construct: purchased ComplementTech A135
T1 sequence (P00751 26-764): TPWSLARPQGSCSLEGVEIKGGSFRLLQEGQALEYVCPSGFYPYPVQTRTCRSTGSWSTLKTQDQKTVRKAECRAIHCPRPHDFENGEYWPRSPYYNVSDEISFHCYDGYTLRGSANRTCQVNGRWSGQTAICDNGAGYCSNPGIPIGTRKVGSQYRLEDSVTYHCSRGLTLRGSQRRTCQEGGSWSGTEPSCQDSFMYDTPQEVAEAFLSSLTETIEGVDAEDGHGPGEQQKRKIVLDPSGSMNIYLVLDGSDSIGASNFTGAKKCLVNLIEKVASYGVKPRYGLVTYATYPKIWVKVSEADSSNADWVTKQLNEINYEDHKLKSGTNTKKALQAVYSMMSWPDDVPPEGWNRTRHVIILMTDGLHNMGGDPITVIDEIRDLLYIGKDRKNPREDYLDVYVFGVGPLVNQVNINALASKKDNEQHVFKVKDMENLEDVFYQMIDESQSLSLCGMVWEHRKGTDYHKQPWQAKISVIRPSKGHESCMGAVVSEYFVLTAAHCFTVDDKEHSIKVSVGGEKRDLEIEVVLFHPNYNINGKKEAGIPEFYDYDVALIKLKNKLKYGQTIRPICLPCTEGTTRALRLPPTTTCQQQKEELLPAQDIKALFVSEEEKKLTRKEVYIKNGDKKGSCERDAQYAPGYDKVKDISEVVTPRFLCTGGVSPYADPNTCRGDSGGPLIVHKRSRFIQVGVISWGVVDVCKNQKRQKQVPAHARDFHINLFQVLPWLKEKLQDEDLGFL
The data set can be described thus: TR-FRET competitive binding assay of human complement factor B (Cy5-labeled probe). As to conditions: inhibitory activity against complement factor B; biotin-labeled factor B 25 nM, Cy5 probe 75 nM, 4 °C.

In data set [5] the test system is collagen antibody and lipopolysaccharide-induced arthritis (CAIA). The data set can be described thus: Collagen antibody-induced mouse arthritis model (Experimental Example 4). It counts as in vivo, BALB/c mice. As to conditions: Mean, 20 mg/kg oral twice a day. As for the experimental part: Experimental animals: BALB/c mice, male, 6-8 weeks, 18-20 g; supplier: Beijing Vital River Laboratory Animal Technology Co., Ltd. 1. […] 2. Administration: Table 4. Administration groups and administration schemes [table] The data were analyzed by One-way ANOVA/Dunnett's using Graphpad Prism and by Repeat Measurement ANOVA/Bonferroni using SPSS. P< 0.05 was considered to indicate a significant difference. Arthritis scoring: Starting from the day of modeling, the incidence of arthritis in the limbs of the animals in each group was observed three times a week until the end of the experiment. According to the different degrees of lesions (erythema and swelling), the scoring was carried out according to the standard of 0-4 points. […] Joint swelling: Starting from the day of modeling, the thickness of the left and right foot pads of the animals was measured three times a week using a micrometer (Mitutoyo, 0-25 mm, minimal 0.001 mm) until the end of the experiment.

As for `COc1cc(C)c2[nH]ccc2c1O[C@@H]1CCN(CC(F)(F)F)C[C@H]1c1ccc(C(=O)O)cc1` [Example 14a-2, 4-((3R,4R)-4-((5-methoxy-7-methyl-1H-indol-4-yl)oxy)-1-(2,2,2-trifluoroethyl)piperidin-3-yl)benzoic acid], the “Arthritis score AUC” value in data set [1] is 3.00. For the same molecule, the IC50 (commonly the point on the concentration scale where inhibition reaches its midpoint) came out at 59.3 nM in data set [2] and 10.2 nM in data set [4]. The Cmax (commonly the maximum level reached in the sampled fluid or tissue) in data set [3] is 1370 ng/mL. Besides, the AUC(0-t) in data set [3] (read-out: AUC0-24) amounted to 6690 ng·h/mL.

Consider `CCOC1CCC(Sc2c(OC)cc(C)c3[nH]ccc23)C(c2ccc(C(=O)O)cc2)C1` (single isomer, unassigned) [Example 19b-2], for which the values for the IC50 in data set [2] and in data set [4] were 104 nM and 8 nM, respectively.

As to `COc1cc(C)c2[nH]ccc2c1SC1CCN(CC(F)F)CC1c1ccc(C(=O)O)cc1` (single isomer, unassigned) [Example 16-2], the “Arthritis score AUC” value in data set [1] was 7.25. Further, the IC50 was […] in data set [2] and 12.4 nM in data set [4]. The peak level in data set [3] (in vivo) (Cmax) was 601 ng/mL. For the same molecule, the AUC(0-t) at 24 h in data set [3] (in vivo, read-out: AUC0-24) was 5750 ng·h/mL.

For the molecule `COc1cc(C)c2[nH]ccc2c1O[C@@H]1CCN(CC(F)F)C[C@H]1c1ccc(C(=O)O)cc1` [Example 13a-2, 4-((3R,4R)-1-(2,2-difluoroethyl)-4-((5-methoxy-7-methyl-1H-indol-4-yl)oxy)piperidin-3-yl)benzoic acid], the figures for the IC50 in data set [2] and in data set [4] were 54.1 nM and 6 nM, respectively. For the same molecule, the peak level in data set [3] (Cmax) was 1290 ng/mL. For the same molecule, the AUC(0-t) in data set [3] (read-out: AUC0-24) was found to be 9680 ng·h/mL. Moreover, the Arthritis score in data set [5] (Day0) was determined as 0.00; in data set [5] (Day3), 0.00; in data set [5] (Day5), 1.17; in data set [5] (Day7) it was 1.83; in data set [5] (Day10), 1.50; in data set [5] (Day12), 1.33. The molecule further registered an Arthritis score in data set [5] (Day14) of 1.50. Further, the “Thickness of foot pads (mm)” value is recorded as 1.60 mm in data set [5] (Day0); 1.607 mm in data set [5] (Day3); 1.632 mm in data set [5] (Day5); 1.665 mm in data set [5] (Day7); 1.666 mm in data set [5] (Day10); 1.661 mm in data set [5] (Day12). Also, the “Thickness of foot pads (mm)” value in data set [5] (Day14) was found to be 1.669 mm.
